# According to the supplement of paper PMC11208160:
# Assay: recombinant barcode read abundance after kanamycin selection (control-corrected) (log10(CPM+1)); higher = more efficient recombination; sequences stand for … in AGTGCAGAGAAAATCGGCCAGTTTTCTCTGCCTGCAGTCCGCATGCCGT…AGATTTATGCAGCGGACTGCCTTTCTCCCAAAGTGATAAACCGGACAGTATCATGGACCGGTTTTCCCGGTAATCCGTATTTGCAAGGTTGGTTTCACT; site = the 11-nt target
# How it was run: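 Pooled E. coli screen pairing targets with IS621 bridge RNA target-binding loops. Each oligo (promoter, target, barcode, J23119-driven first 104 bridge RNA bases) was Gibson-cloned into a vector with the remaining 73 bp and T7-inducible recombinase, then co-electroporated with a donor plasmid. Two replicates each were plated on chloramphenicol/ampicillin LB agar (control) or chloramphenicol/ampicillin/kanamycin with 0.1 mM IPTG. Recombination efficiency is recombinant-junction barcode counts as CPM, averaged, control-corrected, reported as log10(CPM+1).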
# 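Also: IS621 recombinase and bridge RNA in Escherichia coli cells.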
row,Sequence,recombinant barcode read abundance (log10)
1,TAATCGACTTGGGTTCTAACCTGTTGCCT (site TAATCGCCTAG),0.643
2,TAATCGACTTGGGTTCTAACCTGTTGCCT (site TAATCGGCTAG),0
3,TAATCGACTTGGGTTCTAACCTGTTGCCT (site TAATCGTCTAG),0.0431
4,TAATGGCCTTGGGTTCTAACCTGTTGCGA (site ATGAACACTCA),0.0388
5,TAATGGCCTTGGGTTCTAACCTGTTGCGA (site TAATGGCCTTC),0.942
6,TAATGTACTTGGGTTCTAACCTGTTGCCT (site TAATGAACTAG),0.125
7,TAATGTACTTGGGTTCTAACCTGTTGCCT (site TAATGTACTAG),0.556
8,TAATTAGCTTGGGTTCTAACCTGTTGCCT (site TAAATAGCTAG),0.0142
9,TAATTAGCTTGGGTTCTAACCTGTTGCCT (site TAATTAGCTAG),0.435
10,TACAAGACTTGGGTTCTAACCTGTTGCGT (site GGACCCTCTGT),0.168
11,TACAAGACTTGGGTTCTAACCTGTTGCGT (site TACAAGACTAC),1.36
12,TACAAGTCTTGGGTTCTAACCTGTTGCCT (site CTACGACCTCC),0.289
13,TACAAGTCTTGGGTTCTAACCTGTTGCCT (site TACAAGTCTAG),0.625
14,TACAGACCTTGGGTTCTAACCTGTTGCCT (site AACAGACCTAG),0.11
15,TACAGACCTTGGGTTCTAACCTGTTGCCT (site CACAGACCTAG),0.197
16,TACAGACCTTGGGTTCTAACCTGTTGCCT (site GACAGACCTAG),0.065
17,TACAGACCTTGGGTTCTAACCTGTTGCCT (site TACAGACCTAG),1.11
18,TACAGCTCTTGGGTTCTAACCTGTTGCTT (site TACAGCTCTAA),0.016

row,Sequence,recombinant barcode read abundance (log10)
1,TACAGCTCTTGGGTTCTAACCTGTTGCTT (site TACCGCTCTAA),0.104
2,TACAGCTCTTGGGTTCTAACCTGTTGCTT (site TACGGCTCTAA),0.0374
3,TACAGCTCTTGGGTTCTAACCTGTTGCTT (site TACTGCTCTAA),0.107
4,TACATCCCTTGGGTTCTAACCTGTTGCCC (site TACATCCCTAG),0.41
5,TACATCCCTTGGGTTCTAACCTGTTGCCC (site TACATCCCTCG),0.111
6,TACATCCCTTGGGTTCTAACCTGTTGCCC (site TACATCCCTGG),0.646
7,TACATCCCTTGGGTTCTAACCTGTTGCCC (site TACATCCCTTG),0.0347
8,TACCATTCTTGGGTTCTAACCTGTTGCTT (site TACAGTTCTAA),0.0331
9,TACCATTCTTGGGTTCTAACCTGTTGCTT (site TACCATTCTAA),0.239
10,TACCCACCTTGGGTTCTAACCTGTTGCCT (site AACCCACCTAG),0.295
11,TACCCACCTTGGGTTCTAACCTGTTGCCT (site CACCCACCTAG),0.169
12,TACCCACCTTGGGTTCTAACCTGTTGCCT (site GACCCACCTAG),0.262
13,TACCCACCTTGGGTTCTAACCTGTTGCCT (site TACCCACCTAG),1.47
14,TACCCATCTTGGGTTCTAACCTGTTGCCT (site TAACCATCTAG),0.0921
15,TACCCATCTTGGGTTCTAACCTGTTGCCT (site TACCCATCTAG),0.862
16,TACCCATCTTGGGTTCTAACCTGTTGCCT (site TAGCCATCTAG),0.106
17,TACCCATCTTGGGTTCTAACCTGTTGCCT (site TATCCATCTAG),0.0366
18,TACCCGACTTGGGTTCTAACCTGTTGCCT (site TACCAGACTAG),0.0911
